“Also recorded” adds a separate entry of the source. Read-outs that look alike come from different tables or passages of the source. Primed or numbered codes have the meaning given here. FITC′ = not defined here

Data set [1] concerns HCV genotypes 1, 3, and 4. As to the kind of experiment: HCV infection/replication in primary human hepatocytes, HCV RNA by RT-PCR. The data set is classed as cell-based. The text has this:
(§1) Hepatocytes were obtained (from Tissue Transformation Technologies [Edison, N.J.]) from anonymous organ donors without liver disease that were not suitable for liver transplantation for technical but not medical reasons. These donors are negative For Hepatitis A, B and C, CMV, HIV, HTLV ½, and RPR-STS. Hepatocytes cultures with >5% apoptosis by annexin-V assays and/or increases >3-fold in ALT were discarded.
Hepatocytes were isolated from an encapsulated liver sample by a modified two-step perfusion technique introduced by Seglen (63). Briefly, the dissected lobe was placed into a custom-made perfusion apparatus and two to five hepatic vessels were cannulated with tubing attached to a multi-channel manifold. A liver fragment (150 to 500 g) was perfused initially (recirculation technique) with calcium-free HBSS supplemented with 0.5 mM EGTA for 20 to 30 min and then with 0.05% collagenase [Sigma] dissolved in L-15 medium (with calcium) at 37° C. until the tissue was fully digested. The digested liver was removed, immediately cooled with ice-cold L-15 medium and the cell suspension was strained through serial progressively smaller stainless steel sieves, with a final filtration through 100-micron and 60-micron nylon mesh. The filtered cell suspension was aliquoted into 250-ml tubes and centrifuged three times at 40 g for 3 min at 4° C. […]

Data set [2] deals with HCV-infected primary human hepatocytes. Briefly: cell permeability and co-localization with E2 in HCV-infected primary human hepatocytes (immuno-staining, FITC tag). The data set is classed as cell-based.
From the text: as §1
Hepatocytes were isolated from an encapsulated liver sample by a modified two-step perfusion technique introduced by Seglen (63). Briefly, the dissected lobe was placed into a custom-made perfusion apparatus and two to five hepatic vessels were cannulated with tubing attached to a multi-channel manifold. A liver fragment (150 to 500 g) was perfused initially (recirculation technique) with calcium-free HBSS supplemented with 0.5 mM EGTA for 20 to 30 min and then with 0.05% collagenase [Sigma] dissolved in L-15 medium (with calcium) at 37° C. until the tissue was fully digested. The digested liver was removed, immediately cooled with ice-cold L-15 medium and the cell suspension was strained through serial progressively smaller stainless steel sieves, with a final filtration through 100-micron and 60-micron nylon mesh. The filtered cell suspension was aliquoted into 250-ml tubes and centrifuged three times at 40 g for 3 min at 4° C. After the last centrifugation, the cells were re-suspended, in HypoThermosol-FRS [BioLife Solutions, Inc] combined in one tube and placed on ice.
Cells were centrifuged at 700 rpm for 5 min at 4° C., the supernatant was removed and the cells were washed with Hanks Wash Solution ([…] KCl 0.4 g/l; 4.4 mM KH2PO 0.06 g/l; […] NaCl 8 g/l; 3.4 mM Na2HPO4 0.048 g/l; 20 μL CaCl2 (2M)) three times. […]
Fluorescent labels were observed using a triple-channel fluorescence microscope or a laser scanning confocal microscope. […] At least 100 cells were analyzed per experimental point (9). The nuclear morphology was analyzed by staining cells with TOPRO-3 (R&D Systems).

Data set [3] has as its system E2. As to the kind of experiment: binding of the mutant AP50 peptide to E2. Details: species or system HCV.
Data set [4] has as its system HCV-infected primary human hepatocytes. Briefly: cell toxicity (LDH in medium) of HCV-infected primary human hepatocytes. The format is cell-based. Here is the method:
Toxicity of HCV E2 mutants to human hepatocyte cultures was determined by measuring lactic dehydrogenase (LDH) (Sigma) and alanine aminotransferase (ALT) (Weiner Laboratories) in the medium. Positive (Jo2 Ab) and negative (untreated cells) control samples were determined in parallel. LDH assays of culture media were measurements of cellular leakage that indicates cell injury. ALT was enriched in hepatocytes and it's presence in serum or cell culture media was a classic indicator of hepatocyte injury. Indeed, it is the FDA's gold standard for hepatocellular toxicity.

For data set [5], the system named is HCV E2. Briefly: in vitro phosphorylation assay of AP50 by recombinant E2 (cell-free, 32P ATP). The data set is classed as biochemical. The conditions noted are these: peptide added to the phosphorylation assay. On the procedure: AP50 was immunopurified from untransfected primary hepatocytes and subjected to heat inactivation of any associated kinases. Recombinant wild type or mutated E2 were combined with AP50 in the presence of ^32P ATP (MP Biomedicals cat. #35020) and kinase buffer (50 mM Tris-HCL, pH 7.5, 5 mM MgCl2). The reaction was incubated at room temperature for 1 hour, and run on an SDSPAGE, transferred to a membrane and exposed to film overnight, as described previously (8; 57; 63).

Data set [6] addresses HCV E2 Y228E mutant (hepatitis C virus (HCV), UniProt P26664 384-746, Y228E). As to the kind of experiment: co-immunopurification with anti-cyclin G antibodies, primary mouse hepatocytes.
In data set [7] the target is HCV E2 Y228F mutant (hepatitis C virus (HCV), UniProt P26664 384-746, Y228F). The data set is described as above.
The mark [8] stands for this setting: primary hepatocyte infection system.
Where [9] appears, read: listed as dominant negative peptide of the AP50 phospho-acceptor.

On to “NH2-QGEVQRRRQRRKKRGYGGGG-FITC (H-QGEVQRRRQRRKKRGYGGGG-{FITC′}) [AP50 peptide]”, for which the “HCV replication (HCV RNA by RT-PCR)” value in data set [1] (peptide added at the time of HCV infection, genotypes 1, 3, and 4) is “inhibits HCV replication of genotypes 1, 3, and 4”. In data set [1] (setting [8]), the HCV infection entry is recorded as “inhibits HCV infection”. Besides, in data set [2], the cell permeability result is “cell permeable”. In addition, the “co-localization / association with HCV E2” value is “co-localized with HCV E2” in data set [2] and “associates with E2” in data set [2] (setting [9]). Besides, in data set [3], the “binding to E2” value is recorded as “high affinity”. For the same molecule, the “toxicity at termination of the experiment” value in data set [4] (120 hours, in the presence of the peptide) is “comparable to that of uninfected cells”. The “LDH levels (hepatocyte toxicity)” value in data set [4] (peptide added to the media at 72 hours post HCV infection) was “LDH levels began to decrease”. For the same molecule, the “hepatocyte toxicity induced by the peptide” value in data set [4] (setting [8]) is listed as “without inducing hepatocyte toxicity”. In data set [5], the “auto-phosphorylation of E2” value is on record as “unaffected”. Further, the figures for the “phosphorylation of AP50 by recombinant E2 (E2 kinase activity)” value in data set [5] (setting [9]), in data set [5] (listed as dominant negative peptide of the E2 consensus phosphorylation site) and in data set [5] (listed as mutant AP50 peptide) were “blocks the in vitro kinase activity of E2”, “blocked” and “able to block the phosphorylation of AP50 by recombinant E2 in vitro; also recorded: blocks AP50 phosphorylation by E2”, respectively.

B1: cyclin G, endogenous, in primary mouse hepatocytes (other)
chain: MIEVLTTDSQKLLHQLNTLLEQESRCQPKVCGLKLIESAHDNGLRMTARLRDFEVKDLLSLTQFFGFDTETFSLAVNLLDRFLSKMKVQAKHLGCVGLSCFYLAVKATEEERNVPLATDLIRISQYRFTVSDLMRMEKIVLEKVCWKVKATTAFQFLQLYYSLVHDTLPFERRNDLNFERLEAQLKACHCRIIFSKAKPSVLALSILALEIQALKYVELTEGVECIQKHSKISGRDLTFWQELVSKCLTEYSSNKCSKPNGQKLKWIVSGRTARQLKHSYYRITHLPTIPETIC
With B1, the binding result in data set [6] and in data set [7] was “no binding” in each case.

These data come from US20110097332A1, “Composition and Method of Use for HCV Immunization” (priority 2007, published 2011).
